Experimental data as given in patent US5516797A, “Immunosuppressive compounds” (Vertex Pharmaceuticals, Incorporated, priority 1994, dated 1996).
pIC50, pKd, pKi: −log10 of the molar value.

What was measured:
[1] = test system: human peripheral blood lymphocytes; test: Mitogenesis assay OKT3: inhibition of proliferation of human PBLs; format: cell-based; conditions: Lymphocyte, OKT3 (10^-4 dilution final), 48 h incubation
Protocol: (§1) PMA and OKT3mitogens used to stimulate proliferation of human peripheral
(§2) blood lymphocytes (PBC). Compounds are evaluated on their ability to
(§3) Fresh peripheral blood lymphocytes (PBLs) from LeukoPak cells or whole blood from random normal blood donors (tested HIV-negative and hepatitis negative) are isolated and separated by density centrifugation over Histopaque 1077 (Sigma Chemical Co., St. Louis, Mo.). The murine CTLL cytotoxic T cell line and the human Jurkat T cell line are from ATCC (CTLL-2 ATCC TIB214, JURKAT CLONE E6-1 ATCC TIBl52). The human allogeneic B cell lines used for activation of the fresh PBLs are EBV-transformed lymphocytes from normal healthy adult donors with two completely different HLAhaplotypes. All cell lines were routinely tested for the presence of Mycolasma contamination using the GibcoMycotect test kit and are Mycolasma-free. Culture medium consksts of RPMI 1640 (Gibco, Grand Island, N.Y.) containing penicillin (50 U/ml) and streptomycin (50 μg/ml), L-glutamine 2 mM, 2 mercaptoethanol (5×10^-5), 10% heat-inactivated FCS and 10 mM HEPES.
(§4) All chemical stocks were dissolved in DMSO.
(§5) Mitogenesis Assays ("PMA" and "OKT3")
(§6) After 48 h incubation (37° C., 5% CO2), cells were pulsed with 1 μCi of ^3 H-thymidine, harvested 24 h later with a Tom Tek cell harvester, and counted in LKB β-scintillation counter.

[2] = test system: human peripheral blood lymphocytes; test: Mitogenesis assay PMA: inhibition of proliferation of human PBLs; format: cell-based; conditions: Lymphocyte, PMA (10 ng/ml) plus ionomycin (250 ng/ml), 48 h incubation
Protocol: as §1, §2, §3, §4, §5, §6

[3] = molecular target: T1, FK-506 binding protein (FKBP) (Homo sapiens, UniProt P62942); test: Competitive binding to FKBP against [3H]dihydro-FK-506 (apparent Kd); conditions: competition with [3H]dihydro-FK-506
T1 sequence (P62942 whole entry): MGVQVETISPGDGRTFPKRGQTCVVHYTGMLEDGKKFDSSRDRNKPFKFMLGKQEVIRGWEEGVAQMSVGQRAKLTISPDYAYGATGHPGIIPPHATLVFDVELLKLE

[4] = test system: PBLs stimulated with JVM human viral transformed B lymphoblastoid cells; test: MLR bioassay JVM: inhibition of proliferation in mixed lymphocyte reaction; format: cell-based; conditions: Lymphoblastoid cell, pulsed on day 6, harvested 24 h later
Protocol: (§7) LB and JVMhuman viraltransformed B lymphoblastoid cell lines stimulated t
(§8) proliferate in a mixed lymphocyte reaction (MLR). The compounds are
(§9) evaluated on their ability to inhibit this proliferation.
as §3, §4
(§10) MLR Bioassays ("LB" and "JVM")
(§11) Antigen activated proliferation of PBLs in a primary mixed lymphocyte reaction was assessed in the presence or absence of different concentrations of tested compounds and control drugs. 5×10^4 fresh PBLs were stimulated with 5×10^3 of Mitomycin C treated-allogeneic EBV-transformed β-lymphoglastoid cells, IB and JVM, in a final volume of 200 μl per well in 96-well round-bottomed plates (Mishell, B. B. and S. M. Shiigi, Selected Methods in Cellular Immunology W. H. Freeman and Co., San Francisco, Calif. (1980); Nelson, P. A. et al., Transplantation 50:286 (1990)). Cultures were pulsed on day 6, harvested 24 h later and counted as in previous section.

[5] = test system: PBLs stimulated with LB human viral transformed B lymphoblastoid cells; test: MLR bioassay LB: inhibition of proliferation in mixed lymphocyte reaction; format: cell-based; conditions: Lymphoblastoid cell, pulsed on day 6, harvested 24 h later
Protocol: as §7, §8, §9, §3, §4, §10, §11

[6] = molecular target: T1, FK-506 binding protein (FKBP); test: Inhibition of PPIase (rotamase) enzyme activity of FKBP (apparent Ki); format: biochemical; conditions: substrate N-succinylAla-Ala-Pro-Phe-p-nitroanilide, chymotrypsin-coupled
Outline: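 Cis-trans isomerization of N-succinyl-Ala-Ala-Pro-Phe-p-nitroanilide was followed spectrophotometrically in a chymotrypsin-coupled assay releasing 4-nitroanilide from the trans substrate. Apparent Ki came from the change in first-order rate constant across inhibitor concentrations.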

SMILES | pIC50 [1] | pIC50 [2] | pKd [3] | pIC50 [4] | pIC50 [5] | pKi [6]
O=C(C(=O)N1CCCC[C@H]1C(=O)OCc1ccccc1)c1ccccc1 [Compound 3, (S)-Benzyl N-(phenylglyoxyl)pipecolate] | 5.34 | 5.12 | < 5.70 | < 5.00 | < 5.00 | 
COc1cccc(C(=O)C(=O)N2CCCC[C@H]2C(=O)OCc2ccccc2)c1 [Compound 9] | 5.19 | < 5.00 | < 5.89 | < 5.00 | < 5.00 | 6.52
COc1cc(C(=O)C(=O)N2CCCC[C@H]2C(=O)OCc2ccccc2)cc(OC)c1OC [Compound 13] | 5.23 | < 5.00 | 5.70 | < 5.00 | < 5.00 | 7.00
O=C(C(=O)N1CCCC[C@H]1C(=O)OCc1ccccc1)c1ccc([N+](=O)[O-])cc1 [Compound 16] | < 5.00 | < 5.00 | 4.00 | < 5.00 | < 5.00 | 3.80
O=C(C(=O)N1CCCC[C@H]1C(=O)OCc1ccccc1)c1cccs1 [Compound 22] | < 5.00 | < 5.00 | 5.40 | < 5.00 | < 5.00 | 6.10
O=C(C(=O)N1CCCC[C@H]1C(=O)OCc1ccccc1)C1CCCCC1 [Compound 40] | 6.00 | 5.15 | 5.52 | < 5.00 | < 5.00 | 5.89
O=C(OCc1ccccc1)[C@@H]1CCCCN1C(=O)C(=O)C1(O)CCCCC1 [Compound 46] | < 5.00 | < 5.00 | 5.70 | < 5.00 | < 5.00 | 6.00
O=C(C(=O)N1CCCC[C@H]1C(=O)OCc1ccccc1)c1ccc2ccccc2c1 [Compound 47] | < 5.00 | < 5.00 | 6.52 | < 5.00 | < 5.00 | 5.82
O=C(C(=O)N1CCCC[C@H]1C(=O)OCc1ccccc1)c1cccc2ccccc12 [Compound 48] | < 5.00 | < 5.00 | 5.70 | < 5.00 | < 5.00 | 6.00
C[C@H](OC(=O)[C@@H]1CCCCN1C(=O)C(=O)c1ccccc1)c1ccccc1 [Compound 49] | 5.21 | < 5.00 | 6.22 | < 5.00 | < 5.00 | 6.30
O=C(C(=O)N1CCCC[C@H]1C(=O)OCc1ccccc1)c1cccc(C(F)(F)F)c1 [Compound 52] | < 5.00 | < 5.00 | 5.89 | < 5.00 | < 5.00 | 5.82
O=C(C(=O)N1CCCC[C@H]1C(=O)OCc1ccccc1)c1cccc(OCc2ccccc2)c1 [Compound 53] | 5.10 | < 5.00 | 6.70 | < 5.00 | < 5.00 | 6.30
O=C(C(=O)N1CCCC[C@H]1C(=O)OCc1cccc(Oc2ccccc2)c1)c1ccccc1 [Compound 62] | < 5.00 | 5.19 | 6.82 | < 5.00 | < 5.00 | 7.05
COc1cc(C(=O)C(=O)N2CCCC[C@H]2C(=O)OCCCCc2ccccc2)cc(OC)c1OC [Compound 63] | 5.51 | 5.22 | 7.00 | 5.07 | 5.00 | 
COc1cc(C(=O)C(=O)N2CCCC[C@H]2C(=O)OCCCCCCc2ccccc2)cc(OC)c1OC [Compound 71] | 5.26 | 5.30 | 7.30 | 5.10 | 5.12 | 7.00
COc1cc(C(=O)C(=O)N2CCCC[C@H]2C(=O)OCCCCCCC2CCCCC2)cc(OC)c1OC [Compound 72] | < 5.00 | 5.05 | 6.30 | < 5.00 | < 5.00 | 7.30
COc1cc(C(=O)C(=O)N2CCCC[C@H]2C(=O)OCCCCCC2CCCCC2)cc(OC)c1OC [Compound 74] | 5.05 | 5.10 | 7.10 | 5.00 | 5.00 | 7.05
COc1cc(C(=O)C(=O)N2CCCC[C@H]2C(=O)OCCCCc2ccc(I)cc2)cc(OC)c1OC [Compound 77] | 5.10 | 5.35 | 7.22 | 5.15 | 5.22 | 7.80
O=C(C(=O)N1CCCC[C@H]1C(=O)OCCCCc1ccccc1)c1ccc(I)cc1 [Compound 81] | < 5.00 | 5.15 | 6.60 | < 5.00 | < 5.00 | 6.10
O=C(C(=O)N1CCCC[C@H]1C(=O)OCCCCc1ccccc1)c1cccc(I)c1 [Compound 82] | < 5.00 | 5.00 | 6.70 | < 5.00 | < 5.00 | 6.89
COc1ccc(CCCCOC(=O)[C@@H]2CCCCN2C(=O)C(=O)c2cc(OC)c(OC)c(OC)c2)cc1 [Compound 85] | 5.35 | 5.35 | 7.31 | 5.00 | 5.15 | 
C=CCOC(=O)Nc1ccc(CCCOC(=O)[C@@H]2CCCCN2C(=O)C(=O)c2cc(OC)c(OC)c(OC)c2)cc1 [Compound 88] | 5.66 | 5.66 | 7.15 | 5.35 | 5.60 | 7.96
COc1ccc(C=CCCOC(=O)[C@@H]2CCCCN2C(=O)C(=O)c2cc(OC)c(OC)c(OC)c2)cc1 [Compound 90] | < 5.00 | 5.10 | 6.22 | < 5.00 | < 5.00 | 7.96
COc1cc(C(=O)C(=O)N2CCCC[C@H]2C(=O)OCCCc2cn(C=O)c3ccccc23)cc(OC)c1OC [Compound 93] | 5.15 | 5.22 | 7.22 | 5.06 | 5.00 | 7.82
COc1cc(C(=O)C(=O)N2CCCC[C@H]2C(=O)OCCCCc2c[nH]c3ccccc23)cc(OC)c1OC [Compound 94] | 5.26 | 5.30 | 7.30 | 5.15 | < 5.00 | 7.80
O=C(C(=O)N1CCCC[C@H]1C(=O)OCCCCc1ccccc1)c1cccc(-c2ccccc2)c1 [Compound 96] | < 5.00 | < 5.00 | 7.48 | < 5.00 | < 5.00 | 7.40
O=C(C(=O)N1CCCC[C@H]1C(=O)OCCCCc1ccccc1)C1CCCCC1 [Compound 98] | < 5.00 | < 5.00 | 6.74 | < 5.00 | < 5.00 | 7.10
